Assays:
[1] = tested on: iNKT cells; assay: Analysis of lung iNKT cell activation (intracellular IFN-γ, flow cytometry); format: in vivo, mice; settings: lung iNKT cells of IAV-experienced animals (day 7 post-IAV) compared with naïve animals; i.n. administration
[2] = tested on: S. pneumoniae; settings: exogenous activation of lung iNKT cells; high dose of bacteria; no previous influenza; cited from earlier work
[3] = tested on: S. pneumoniae serotype 1; design: species or system mice; settings: mouse, in vivo

CCCCCCCCCCCCCCCCCCCCCCCCCC(=O)N[C@@H](CO[C@H]1O[C@H](CO)[C@H](O)[C@H](O)[C@H]1O)[C@H](O)[C@H](O)CCCCCCCCCCCCCC [α-GalCer, α-galactosylceramide]
iNKT cell activation (IFN-γ production) in response to α-GalCer [1]: leads to iNKT cell activation | clearance of S. pneumoniae [2]: leads to the clearance of S. pneumoniae | protection against S. pneumoniae challenge, as assessed by the enhanced survival rate [3]: ~70%

— patent US20150224129A1 (priority 2012, published 2015)
